Measured values: patent publication US4762840A, “Pyrimido[2,1-b]benzothiazoles having antiallergic activity” (Roussel Uclaf, priority 1984, dated 1988)

System: lungs
Assay: Antigen-induced elevation of lung perfusion pressure (isolated perfused sensitized lung, ovalbumen)
Parameters: species or system guinea pig (Dunkin Hartley)
Conditions: Cavia porcellus; perfused lungs of ovalbumen-sensitized guinea pigs; compound in krebs fluid 30 minutes prior to second antigen dose (15 μg ovalbumen); at least four lungs per concentration; read-out: IC50 (inhibition of antigen induced broncho-constriction)
Description: Antigen-induced elevation of lung perfusion pressure
Male Dunkin Hartley guinea pigs (Porcellus) weighing between 450-700 g were used (four per test concentration) and were housed in cages. The animals were sensitized by two weekly exposures to 1% W/V aerosol ovalbumen. The animals were anaesthetized with 2.5 mg/kg diazepam i.p. and 1 ml/kg Hyponorm i.m. Following anaethesia, the animals were exsanguinated by severing both carotid arteries and the chest was opened and the lungs removed, split into two at the carina and both cannulated via the main lobar bronchus and connected to a perfusion system. The lungs were perfused with aerated krebs fluid (95% O2 :5% CO2) at 37° C. and 5 μg in 0.1 ml Ovalbumen was injected through an injection port proximal to each lung. Elevation of perfusion pressure by the antigen was recorded and sixty minutes later, 15 μg of ovalbumen were administered. The test compounds were added to the krebs fluid reservoir thirty minutes prior to the second antigen dose. For each weekly batch of animals used, control measurements were made without treatment (n=10 ). The second antigen response was expressed as a percentage of the first. For each test, at least four lungs from four different animals were used per concentration. The percentage inhibition of antigen induced broncho-constriction was calculated.

Compared with `CCOC(=O)C(C)c1ccc2c(c1)sc1nc(=O)ccn12` (stereo not drawn) [Example 2, Ethyl 2-oxo-2H-pyrimido[2,1-b]benzothiazole-8-α-methylacetate], `CCOC(=O)C(C)c1ccc2c(c1)sc1nc(=O)cc(C(C)C)n12` (stereo not drawn) [Example 28, Ethyl α-methyl-4-isopropyl-2-oxo-2H-pyrimido[2,1-b]benzothiazole-8-acetate] is lower in IC50: greater than 100 µM for the first, 10 to 100 µM for the second. The second is the more potent here.

`CCOC(=O)Cc1ccc2c(c1)sc1nc(=O)cc(-c3ccccc3)n12` [Example 3, Ethyl 2-oxo-4-phenyl-2H-pyrimido[2,1-b]benzothiazole-8-acetate] and `CCCOC(=O)Cc1ccc2c(c1)sc1nc(=O)cc(-c3ccccc3)n12` [Example 5, n-Propyl 2-oxo-4-phenyl-2H-pyrimido[2,1-b]benzothiazole-8-acetate] cannot be ordered by IC50: 1 µM for the first, less than 10 µM for the second.

`COC(=O)Cc1ccc2c(c1)sc1nc(=O)cc(-c3ccccc3)n12` [Example 4, Methyl 2-oxo-4-phenyl-2H-pyrimido[2,1-b]benzothiazole-8-acetate] and `CC(C)OC(=O)Cc1ccc2c(c1)sc1nc(=O)cc(-c3ccccc3)n12` [Example 6, Isopropyl 2-oxo-4-phenyl-2H-pyrimido[2,1-b]benzothiazole-8-acetate] cannot be ordered by IC50: 10 µM for the first, 1 to 10 µM for the second.

Compared with `CCCCOC(=O)Cc1ccc2c(c1)sc1nc(=O)cc(-c3ccccc3)n12` [Example 7, n-Butyl 2-oxo-4-phenyl-2H-pyrimido[2,1-b]benzothiazole-8-acetate], `CCCCC(C(=O)OCC)c1ccc2c(c1)sc1nc(=O)cc(-c3ccccc3)n12` (stereo not drawn) [Example 34, Ethyl α-butyl-4-phenyl-2-oxo-2H-pyrimido[2,1-b]benzothiazole-8-acetate] is lower in IC50: greater than 10 µM for the first, 1 to 10 µM for the second. The second is the more potent here.

First: CCOC(=O)Cc1ccc2c(c1)sc1nc(=O)cc(-c3ccc(OC)cc3)n12 [Example 9, Ethyl 4-(4-methoxyphenyl)-2-oxo-2H-pyrimido[2,1-b]benzothiazole-8-acetate]
Second: CCOC(=O)Cc1ccc2c(c1)sc1nc(=O)cc(-c3ccc(C)cc3)n12 [Example 13, Ethyl 4-(4-methylphenyl)-2-oxo-2H-pyrimido[2,1-b]benzothiazole-8-acetate]
The IC50 of the first is higher: 1 µM for the first, less than 1 µM for the second. The second is the more potent here.

`CCOC(=O)Cc1ccc2c(c1)sc1nc(=O)cc(-c3ccc([N+](=O)[O-])cc3)n12` [Example 10, Ethyl 4-(4-nitrophenyl)-2-oxo-2H-pyrimido[2,1-b]benzothiazole-8-acetate] and `CCOC(=O)Cc1ccc2c(c1)sc1nc(=O)cc(-c3ccc(Cl)cc3)n12` [Example 11, Ethyl 4-(4-chlorophenyl)-2-oxo-2H-pyrimido[2,1-b]benzothiazole-8-acetate] cannot be ordered by IC50: 10 to 100 µM for the first, 10 µM for the second.

`CCOC(=O)Cc1ccc2c(c1)sc1nc(=O)cc(-c3ccccc3Cl)n12` [Example 12, Ethyl 4-(2-chlorophenyl)-2-oxo-2H-pyrimido[2,1-b]benzothiazole-8-acetate] and `CCOC(=O)Cc1ccc2c(c1)sc1nc(=O)cc(-c3cccc(Cl)c3)n12` [Example 14, Ethyl 4-(3-chlorophenyl)-2-oxo-2H-pyrimido[2,1-b]benzothiazole-8-acetate] cannot be ordered by IC50: 0.1 to 1 µM for the first, no more than 1 µM for the second.

`CCOC(=O)Cc1ccc2c(c1)sc1nc(=O)cc(C)n12` [Example 15, Ethyl 4-methyl-2-oxo-2H-pyrimido[2,1-b]benzothiazole-8-acetate] and `CCOC(=O)Cc1ccc2c(c1)sc1nc(=O)cc(CC)n12` [Example 16, Ethyl 4-ethyl-2-oxo-2H-pyrimido[2,1-b]benzothiazole-8-acetate] cannot be ordered by IC50: 10 to 100 µM for the first, 100 µM for the second.

`CCCc1cc(=O)nc2sc3cc(CC(=O)OCC)ccc3n12` [Example 17, Ethyl 2-oxo-4-n-propyl-2H-pyrimido[2,1-b]benzothiazole-8-acetate] and `CCCCc1cc(=O)nc2sc3cc(CC(=O)OCC)ccc3n12` [Example 18, Ethyl 4-n-butyl-2-oxo-2H-pyrimido[2,1-b]benzothiazole-8-acetate] cannot be ordered by IC50: 1 to 10 µM for the first, 10 µM for the second.

`CCOC(=O)C(C)c1ccc2c(c1)sc1nc(=O)cc(-c3ccccc3)n12` (stereo not drawn) [Example 20, Ethyl α-methyl-2-oxo-4-phenyl-2H-pyrimido[2,1-b]benzothiazole-8-acetate] and `CCOC(=O)C(CC)c1ccc2c(c1)sc1nc(=O)cc(-c3ccccc3)n12` (stereo not drawn) [Example 29, Ethyl α-ethyl-4-phenyl-2-oxo-2H-pyrimido[2,1-b]benzothiazole-8-acetate] are the same in IC50: 0.1 µM for the first, 0.1 µM for the second.

`CCOC(=O)C(C)c1ccc2c(c1)sc1nc(=O)cc(-c3ccc(Cl)cc3)n12` (stereo not drawn) [Example 22, Ethyl α-methyl 4-(4-chlorophenyl)-2-oxo-2H-pyrimido[2,1-b]benzothiazole-8-acetate] and `CCOC(=O)C(C)c1ccc2c(c1)sc1nc(=O)cc(-c3cccc(Cl)c3)n12` (stereo not drawn) [Example 23, Ethyl α-methyl 4-(3-chlorophenyl) 2-oxo-2H-pyrimido[2,1-b]benzothiazole-8-acetate] cannot be ordered by IC50: 0.1 to 1 µM for the first, no more than 1 µM for the second.

`CCCc1cc(=O)nc2sc3cc(C(C)C(=O)OCC)ccc3n12` (stereo not drawn) [Example 24, Ethyl α-methyl-2-oxo-4-n-propyl-2H-pyrimido[2,1-b]benzothiazole-8-acetate] and `CCOC(=O)C(C)c1ccc2c(c1)sc1nc(=O)cc(Cc3ccccc3)n12` (stereo not drawn) [Example 27, Ethyl α-methyl-4-benzyl-2-oxo-2H-pyrimido[2,1-b]benzothiazole-8-acetate] cannot be ordered by IC50: greater than 10 µM for the first, 10 to 100 µM for the second.

Compared with `CCOC(=O)Cc1ccc2c(c1)sc1nc(=O)cc(C(C)C)n12` [Example 25, Ethyl 4-isopropyl-2-oxo-2H-pyrimido[2,1-b]benzothiazole-8-acetate], `CCOC(=O)Cc1ccc2c(c1)sc1nc(=O)cc(C3CCCCC3)n12` [Example 30, Ethyl 4-cyclohexyl-2-oxo-2H-pyrimido[2,1-b]benzothiazole-8-acetate] is lower in IC50: 10 to 100 µM for the first, 1 to 10 µM for the second. The second is the more potent here.

First: CCOC(=O)C(C)c1ccc2c(c1)sc1nc(=O)cc(C3CCCCC3)n12 (stereo not drawn) [Example 31, Ethyl α-methyl-4-cyclohexyl-2-oxo-2H-pyrimido[2,1-b]benzothiazole-8-acetate]
Second: CCOC(=O)C(c1ccc2c(c1)sc1nc(=O)cc(-c3ccccc3)n12)C(C)C (stereo not drawn) [Example 33, Ethyl α-isopropyl-4-phenyl-2-oxo-2H-pyrimido[2,1-b]benzothiazole-8-acetate]
The IC50 of the first is lower: less than 10 µM for the first, 10 to 100 µM for the second.

`CCCC(C(=O)OCC)c1ccc2c(c1)sc1nc(=O)cc(-c3ccccc3)n12` (stereo not drawn) [Example 32, Ethyl α-propyl-4-phenyl-2-oxo-2H-pyrimido[2,1-b]benzothiazole-8-acetate] and `CCCC(C)(C(=O)OCC)c1ccc2c(c1)sc1nc(=O)cc(-c3ccccc3)n12` (stereo not drawn) [Example 38, Ethyl α-methyl-α-propyl-4-phenyl-2-oxo-2H-pyrimido[2,1-b]benzothiazole-8-acetate] are the same in IC50: 1 µM for the first, 1 µM for the second.

First: CC(C)OC(=O)C(C)c1ccc2c(c1)sc1nc(=O)cc(-c3ccccc3)n12 (stereo not drawn) [Example 35, Isopropyl α-methyl-4-phenyl-2-oxo-2H-pyrimido[2,1-b]benzothiazole-8-acetate]
Second: CCOC(=O)C(C)(C)c1ccc2c(c1)sc1nc(=O)cc(-c3ccccc3)n12 [Example 36, Ethyl α,α-dimethyl-4-phenyl-2-oxo-2H-pyrimido[2,1-b]benzothiazole-8-acetate]
The IC50 of the first is lower: 0.1 to 1 µM for the first, 1 to 10 µM for the second. The first is the more potent here.

Compound `CCOC(=O)C(C)(CC)c1ccc2c(c1)sc1nc(=O)cc(-c3ccccc3)n12` (stereo not drawn) [Example 37, Ethyl α-ethyl-α-methyl-4-phenyl-2-oxo-2H-pyrimido[2,1-b]benzothiazole-8-acetate] has an IC50 of 1 µM.
